# Values quoted from earlier work in patent US20160296627A1, “INTRACAMERAL IMPLANT FOR TREATMENT OF AN OCULAR CONDITION” (Envisia Therapeutics Inc., priority 2013, published 2016).
# Target: Cloned Human Ciliary Body FP Prostaglandin Receptor (Homo sapiens, UniProt P43088)
# Details: Sharif et al. 2002, read-out: Functional Potency, EC50
# Chain of Cloned Human Ciliary Body FP Prostaglandin Receptor (P43088 whole entry): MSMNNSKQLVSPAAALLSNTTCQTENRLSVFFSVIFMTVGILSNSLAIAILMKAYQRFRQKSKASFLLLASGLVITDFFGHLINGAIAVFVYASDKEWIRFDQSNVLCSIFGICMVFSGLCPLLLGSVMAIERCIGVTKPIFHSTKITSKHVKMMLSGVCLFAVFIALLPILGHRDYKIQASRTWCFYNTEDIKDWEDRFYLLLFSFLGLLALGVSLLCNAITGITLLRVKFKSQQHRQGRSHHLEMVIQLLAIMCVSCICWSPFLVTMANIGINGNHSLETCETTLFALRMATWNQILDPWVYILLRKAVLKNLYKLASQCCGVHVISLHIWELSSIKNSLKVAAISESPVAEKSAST
row,Compound,EC50 [nM]
1,O=C(O)CCC/C=C\C[C@@H]1[C@@H](/C=C/[C@@H](O)CCc2ccccc2)[C@H](O)C[C@@H]1O [Bimatoprost acid],5.8
2,CCNC(=O)CCC/C=C\C[C@@H]1[C@@H](/C=C/[C@@H](O)CCc2ccccc2)[C@H](O)C[C@@H]1O [Bimatoprost],694
3,O=C(O)CCC/C=C\C[C@@H]1[C@@H](CC[C@@H](O)CCc2ccccc2)[C@H](O)C[C@@H]1O [Latanoprost acid],54.6
4,CC(C)OC(=O)CCC/C=C\C[C@@H]1[C@@H](CC[C@@H](O)CCc2ccccc2)[C@H](O)C[C@@H]1O [Latanoprost],126
5,O=C(O)CCCC=CCC1C(O)CC(O)C1C=CC(O)COc1cccc(C(F)(F)F)c1 (stereo not drawn) [Travoprost acid],3.2
6,"CC(C)OC(=O)CCC/C=C\C[C@@H]1[C@@H](/C=C/[C@@H](O)COc2cccc(C(F)(F)F)c2)[C@H](O)C[C@@H]1O [Travoprost, propan-2-yl 7-[3,5-dihydroxy-2-[3-hydroxy-4-[3-(trifluoromethyl)phenoxy]-but-1-enyl]-cyclopentyl]hept-5-enoate]",42.3
